# Results taken from patent US12486231B2, “Targeted nitroxide compounds and their use in treating ferroptosis-related diseases” (University of Pittsburgh—Of the Commonwealth System of …, priority 2019, dated 2025).
# Like-named read-outs stand apart in the source and are kept apart here.
# How the values were obtained:
# HT-1080 cells = assay: Protection against Erastin-induced ferroptosis in HT-1080 cells (CellTiter-Glo); format: cell-based; conditions: for Erastin-induced ferroptosis in HT-1080 cells: % activity remaining at 1 μM / % Activity remaining (value at a concentration of 1 μM): compound 1 μM; for % Activity remaining (value at a concentration of 1 μM): relative to vehicle and Erastin samples
# Description: Compounds 6c, 6e, 6f, and 6i, as described above, were tested at a concentration of 1 μM, yielding values of 6c (85%), 6e (80%), 6f (77%), 6g (16%), 6h (78%), 6i (57%), and 6j (83%). For comparison, JP4-039 yielded a value of 56%. […] Briefly, 200 μL of a 5,000 cell/mL solution of HT-1080 cells were incubated for 24 h at 37° C. at 5% CO2, 95% humidity. The compounds were dissolved in DMSO and diluted to desired testing concentration. Compounds (1 μL) were added to culture medium (1 mL) containing 10 μM Erastin and incubated at 37° C., 5% CO2, 95% humidity for 24 h. CellTiter-Glo® reagent was added and the plate was incubated for 20 min at rt, sealed, centrifuged (1 min) at 1,000 rpm, shaken (1 min), and read in Enspire. % Activity remaining was determined as a function of vehicle sample and Erastin sample.
# B. Compounds 6a-6n were tested for their protection against Erastin-induced ferroptosis in HT-1080 cells. Briefly, 200 μL of a 5,000 cell/mL solution of HT-1080 cells were incubated for 24 h at 37° C. at 5% CO2, 95% humidity. The compounds were dissolved in DMSO and diluted to desired testing concentration. Compounds (1 μL) were added to culture medium (1 mL) containing 10 μM Erastin and incubated at 37° C., 5% CO2, 95% humidity for 24 h. CellTiter-Glo® reagent was added and the plate was incubated for 20 min at rt, sealed, centrifuged (1 min) at 1,000 rpm, shaken (1 min), and read in Enspire. % Activity remaining was determined as a function of vehicle sample and Erastin sample.
# [1] = 10 μM Erastin, 24 h, HT-1080 cells, read-out: EC50
# [2] = 10 μM Erastin, 24 h, HT-1080 cells
Compound,Erastin-induced ferroptosis in HT-1080 cells: % activity remaining at 1 μM (HT-1080 cells; [2]),% Activity remaining (value at a concentration of 1 μM) (HT-1080 cells; [2]),log P (log P),logP (log P),further results
"tert-Butyl (S,E)-(7-(1-oxy-2,2,6,6-tetramethylpiperidine-4-carboxamido)-2,7-dimethyloct-5-en-4-yl)carbamate [6h]",78%,78%,3.68,,EC50 (HT-1080 cells; [1]): 576 nM
"CC(C)CC(C=CCC(=O)NC1CC(C)(C)N([O])C(C)(C)C1)NC(=O)OC(C)(C)C [6l, tert-Butyl (S,Z)-(8-((1-oxy-2,2,6,6-tetramethylpiperidin-4-yl)amino)-2-methyl-8-oxooct-5-en-4-yl)carbamate]",,,2.76,,
"CC(C)C[C@@H](/C=C/CNC(=O)C1CC(C)(C)N([O])C(C)(C)C1)NC(=O)OC(C)(C)C [6i, tert-Butyl (S,E)-(1-(1-oxy-2,2,6,6-tetramethylpiperidine-4-carboxamido)-6-methylhept-2-en-4-yl)carbamate]",57%,57%,,3.15,
"tert-Butyl (S,E)-(1-(1-((1-oxy-2,2,6,6-tetramethylpiperidin-4-yl)carbamoyl)cyclopentyl)-5-methylhex-1-en-3-yl)carbamate [6f]",77%,77%,4.37,,
"tert-Butyl (S,E)-(5-((1-oxy-2,2,6,6-tetramethylpiperidin-4-yl)amino)-4,4-dimethyl-5-oxo-1-phenylpent-2-en-1-yl)carbamate [6a]",,,4.19,,
"tert-Butyl (S,E)-(1-(1-((1-oxy-2,2,6,6-tetramethylpiperidin-4-yl)carbamoyl)cyclopropyl)-5-methylhex-1-en-3-yl)carbamate [6e]",80%,80%,3.53,,"EC50 (HT-1080 cells; 10 μM Erastin, 24 h, HT-1080 cells, read-out: Erastin-induced ferroptosis in HT-1080 cells: EC50): 958 nM"
"CCCCCCCC(=O)NC1CC(C)(C)N([O])C(C)(C)C1 [6n, N-(1-Oxy-2,2,6,6-tetramethylpiperidin-4-yl)octanamide]",,,,2.83,
"CC(C)C[C@@H](CCCC(=O)NC1CC(C)(C)N([O])C(C)(C)C1)NC(=O)OC(C)(C)C [6m, tert-Butyl (R)-(8-((1-oxy-2,2,6,6-tetramethylpiperidin-4-yl)amino)-2-methyl-8-oxooctan-4-yl)carbamate]",,,,2.94,
"tert-Butyl (S,E)-(1-(4-((1-oxy-2,2,6,6-tetramethylpiperidin-4-yl)carbamoyl)tetrahydro-2H-pyran-4-yl)-5-methylhex-1-en-3-yl)carbamate [6g]",16%,16%,3.10,,
"tert-Butyl (S,E)-(7,7-dibenzyl-8-((1-oxy-2,2,6,6-tetramethylpiperidin-4-yl)amino)-2-methyl-8-oxooct-5-en-4-yl)carbamate [6d]",78%,,7.24,,EC50 (HT-1080 cells; [1]): 173 nM
"tert-Butyl (S,E)-(8-((1-oxy-2,2,6,6-tetramethylpiperidin-4-yl)amino)-2,7,7-trimethyl-8-oxooct-5-en-4-yl)carbamate [6c]",85%,85%,4.03,,
"CC(C)C[C@@H](/C=C/[C@H](Cc1ccc(F)cc1)C(=O)NC1CC(C)(C)N(O)C(C)(C)C1)NC(=O)OC(C)(C)C [6k, tert-Butyl ((4S,7S,E)-7-(4-fluorobenzyl)-8-((1-oxy-2,2,6,6-tetramethylpiperidin-4-yl)amino)-2-methyl-8-oxooct-5-en-4-yl)carbamate]",,,,5.09,
"CC(C)(C)OC(=O)N[C@@H](/C=C/CC(=O)NC1CC(C)(C)N([O])C(C)(C)C1)c1ccccc1 [6b, tert-Butyl (S,E)-(5-((1-oxy-2,2,6,6-tetramethylpiperidin-4-yl)amino)-5-oxo-1-phenylpent-2-en-1-yl)carbamate]",,,,2.92,"EC50 (HT-1080 cells; Homo sapiens, HT-1080, 24 h): 948 nM"
"CC(C)C[C@@H](/C=C/[C@H](Cc1ccccc1)C(=O)NC1CC(C)(C)N(O)C(C)(C)C1)NC(=O)OC(C)(C)C [6j, tert-Butyl ((4S,7S,E)-7-benzyl-8-((1-oxy-2,2,6,6-tetramethylpiperidin-4-yl)amino)-2-methyl-8-oxooct-5-en-4-yl)carbamate]",83%,83%,,4.93,"EC50 (HT-1080 cells; Homo sapiens, 10 μM Erastin, 24 h, HT-1080 cells, read-out: EC50): 207 nM; EC50 (HT-1080 cells; Homo sapiens, 10 μM Erastin, 24 h, HT-1080 cells, read-out: Erastin-induced ferroptosis in HT-1080 cells: EC50): 207 nM"
